Experimental data reported in patent US11884631B1 (priority 2023, dated 2024).

Tested on: multidrug-resistant (MDR) strains of Mycobacterium tuberculosis
Test: microbe, parasite or virus in culture
Type: cell-based
Settings: read-out: MIC (μg/mL) MDR Strain

Row | Structure (SMILES) | MIC
1 | Cc1ccc2c(ccc[n+]2CC(=O)c2cc(C(F)(F)F)cc(C(F)(F)F)c2)c1.[Br-] [Compound 3c, 1-(2-(3,5-Bis(trifluoromethyl)phenyl)-2-oxoethyl)-6-methylquinolin-1-ium bromide] | 32 µg/mL
2 | Cc1ccc2c(ccc[n+]2CC(=O)c2ccc(F)cc2)c1.[Br-] [Compound 3b, 1-(2-(4-Fluorophenyl)-2-oxoethyl)-6-methylquinolin-1-ium bromide] | 16 µg/mL
3 | Cc1ccc2c(ccc[n+]2CC(=O)c2ccccc2[N+](=O)[O-])c1.[Br-] [Compound 3a, 6-Methyl-1-(2-(2-nitrophenyl)-2-oxoethyl)quinolin-1-ium bromide] | 64 µg/mL
